Test results from patent US20200129472A1, “COMPOSITIONS AND METHODS FOR THE TREATMENT OF PERIPHERAL ARTERY DISEASE” (BOARD OF REGENTS OF THE UNIVERSITY OF NEBRASKA, priority 2017, published 2020).
Entries after “also recorded” stand apart in the source; their conditions may differ.

System: rat model of peripheral arterial disease (PAD rats, femoral artery occlusion)
Assay: Exercise intolerance test (motorized treadmill) in PAD rat model after epidural delivery of RTX
Assay type: in vivo
Excerpt: Catheter-based femoral artery occlusion was created by placing a modified PE50 catheter (its cavity filled with solid agarose) between common iliac artery and left femoral artery to interrupt hindlimb blood supply. The whole procedure is similar to the telemetry implant surgery. Generally, rats were anesthetized using a 2%-3% isoflurane:oxygen mixture. A warm water blanket was used to provide intra-operative heat support to prevent hypothermia. Rats were placed in the prone position and the surgical site (i.e., the femoral area) was cleared of hair, prepared with iodine or chlorhexidine, and the femoral artery was exposed. After a small incision was made, a modified PE50 catheter was placed into the femoral artery and advanced about 3.5 cm to the iliac artery at the aortic bifurcation. The distal end of the femoral artery was ligated with 4-0 Dexon suture. The skin was closed with external interrupted 4-0 or 3-0 prolene suture, which were removed in 10-14 days after the surgery.
Exercise testing for determination of intolerance time was performed in a motorized treadmill equipped with an electrical grid at the end of the lane. The animals were initially acclimated to the treadmill environment at a low speed (13 m/min, 0% grade) for 6 minutes. Then, data was recorded of the exercise duration and distance at the speed of the treadmill of 13 m/minute (0% grade) and increased of 3 m/minute each 2 minutes until exhaustion. Exhaustion was defined operationally as the time at which the rat was unable, or refused, to maintain its running speed for more than 15 seconds despite encouragement by mild electrical stimulation. The maximal speed and running distance were recorded when exhaustion occurred. Two methods were used to measure the exercise intolerance time in sham, PAD and PAD+RTX rats. With the first method, individual rats were run with 90%, 75%, 50% and 25% of its own maximal speed. The exercise intolerance time corresponding to individual running intensity was recorded and compared among groups. With the second method, a fixed running speed (37 m/minute) was used to run all rats among groups to get their exercise intolerance time.
To deplete skeletal muscle afferent neuron soma (L4-L5 DRGs), rats were anesthetized using 2%-3% isoflurane:oxygen mixture. Rats were placed in the prone position and the surgical site was cleared of hair, prepared with iodine or chlorhexidine. A small midline incision was made in the region of the T13-L1 thoracic vertebrae. Following dissection of the superficial muscles, a small hole (approximately 3 mm*3 mm) was made in the left side of T13 vertebral (ipsilateral). A polyethylene catheter (PE-10) was inserted into the subarachnoid space via left hole and gently advanced about 4.0 cm to the left L5 level in which the first injection (6 μg/ml, 10 μl) was made at a very slow speed to minimize the diffusion of RTX. Then the catheter was pulled back to left L4 to perform another injection (10 μl/each). Then the catheter was held for 15 minutes and then withdrawn. After that, silicon gels were used to seal the hole in the T13 vertebral. The skin overlying the muscle was closured by 3-0 polypropylene suture. Simple interrupted sutures were used to close the skin. Skin suture were removed 10-14 days after surgery. Betadine was applied to the wound and the rats were allowed to recover from the anesthesia.
The therapeutic efficacy of resiniferatoxin was tested in a in a rat model of peripheral arterial disease. As explained above, resiniferatoxin was administered to PAD rats by lumbar epidural administration at the time of femoral arterial occlusion. The resiniferatoxin (6 μg/ml, 10 μl/per ganglia) was injected between the ipsilateral L4 and L5 vertebrae into the epidural space at a concentration of 10 μl per ganglion. Healthy rats with sham treatment were also used as a positive control.

Q: With C=C(C)[C@]12C[C@@H](C)[C@@]34O[C@@](Cc5ccccc5)(OC1C3C=C(COC(=O)Cc1ccc(O)c(OC)c1)C[C@]1(O)C(=O)C(C)=CC41)O2 (stereo partly drawn) [resiniferatoxin, [(1R,6R,13R,15R,17R)-13-benzyl-6-hydroxy-4,17-dimethyl-5-oxo-15-(prop-1-en-2-yl)-12,14,18-trioxapentacyclo[11.4.1.0^1,10.0^2,6.0^11,15]octadeca-3,8-dien-8-yl]methyl 2-(4-hydroxy-3-methoxyphenyl)acetate] as the compound, how does the “ability to run for longer distances at a higher rate (time running at percent maximum intensity)” value (RTX 6 μg/ml, 10 μl per ganglion, lumbar epidural L4/L5, at the time of femoral arterial occlusion, FIG. 1D) read?
A: increased ability to run for longer distances at a higher rate

Q: And the “ability to run at 37 m/minute (time run at 37 m/min)” value (RTX 6 μg/ml, 10 μl per ganglion, lumbar epidural L4/L5, at the time of femoral arterial occlusion, fixed speed 37 m/minute, FIG. 1C)?
A: increased ability to run at 37 m/minute

Q: What about the running distance (RTX 6 μg/ml, 10 μl per ganglion, lumbar epidural L4/L5, at the time of femoral arterial occlusion, vs PAD+control, FIG. 1A) of the same compound?
A: increased running distances

Q: What about the maximal running speed (RTX 6 μg/ml, 10 μl per ganglion, lumbar epidural L4/L5, at the time of femoral arterial occlusion, vs PAD+control, FIG. 1B) of the same compound?
A: increased maximal running speed

Q: And the “exercise limitations associated with PAD” value (RTX administered 4 weeks after femoral arterial occlusion (after onset of PAD), before vs after treatment, FIG. 2)?
A: reduces exercise limitations; also recorded: reduced the exercise limitations

Q: And the “exercise limitations associated with PAD” value (RTX given at the time of femoral arterial occlusion, FIG. 1)?
A: reduces the exercise limitations

Q: And the “duration of the statistically significant improvements in exercise performance” value (RTX given at the time of femoral arterial occlusion, time after PAD surgery)?
A: lasted for months
